Results taken from US20230174584A1, “Antibiotic Compounds” (priority 2019, published 2023).
≈ marks a conversion by molar mass, not a printed value.

Tests used:
[1] = test system: HepG2 human hepatocellular carcinoma cells; experiment: Cytotoxicity assay for HepG2 (MTT); assay type: cell-based; details: MTT, HepG2, 24 h, 10% FBS
Description: (§1) Mammalian cytotoxicity assays were performed by Cyprotex. Cytotoxicity was assessed using the MTT assay. Briefly, HepG2 human hepatocellular carcinoma cells (100 μL per well) were plated on black-walled clear-bottomed polystyrene 96-well tissue culture treated plates 24 h prior to dosing the cells. The cells were dosed with test compound (dissolved in 0.5% DMSO in growth media containing 10% FBS) at a range of concentrations (0.04 μM, 0.1 μM, 0.4 μM, 1 μM, 4 μM, 10 μM, 40 μM, 100 μM). After 23 h period the cells were loaded with the MTT dye (yellow; 3-(4,5-dimethyl-2-thiazolyl)-2,5-diphenyl-2H-tetrazolium bromide) followed by an additional 1 h incubation (resulting in a total incubation time with antibiotics of 24 h). Subsequently, the plates are dried and solubilized in DMSO followed by scanning at 570 nm using a microplate absorbance reader. Cell viability is determined by conversion of the soluble MTT to insoluble formazan (purple) by mitochondrial […] in live cells. Production of formazan indicates […]. Carbonyl cyanide 3-chlorophenylhydrazone is used as no response control and chlorpromazine is used as control known to be cytotoxic. Solvent control wells (0.5% DMSO in growth media containing 10% FBS) are then used to determine significance limits for wells that have a greater than expected fraction of low or high responders. The minimum effective concentration is determined from the lowest concentration whose mean value exceeds the significance level, provided either a clear dose-response relationship is observed, or at least two consecutive concentration points are above the significance level. AC50 values are also determined provided a clear dose-response relationship is observed. Experiment was performed in triplicates.

S. aureus ATCC29213 = experiment: UDP-MurNAc-pentapeptide accumulation assay; assay type: cell-based, Staphylococcus aureus; details: S. aureus ATCC29213, 5 μM, 1 h
Description: An overnight culture of bacterial suspension (S. aureus ATCC29213, E. faecium E155, E. faecium E7314 and E. faecium E980) was diluted 100-fold in TSB supplemented with 0.002% p80 and cultured at 37° C. until the optical density of the suspension reached a level equivalent to the 0.5 McFarland standard. Chloramphenicol was added at a final concentration of 130 μg/mL and the culture was incubated for an additional 15 min at 37° C. […] The cultures were incubated at 37° C. for 1 h, after which they were centrifuged to pellet the bacteria. The supernatant was removed and the pellets were resuspended in 1 mL MQ-H2O. The samples were boiled at 100° C. for 15 minutes and subsequently centrifuged at 12000 rpm for 30 minutes. The supernatant of the samples was lyophilized and redissolved in 250 μL buffer A (50 mM ammonium bicarbonate, 5 mM NEt3, pH 8.3). Samples were analyzed by analytical RP-HPLC using a 0-25% buffer B (MeOH) gradient over 25 minutes.
An UDP-MurNAc-pentapeptide accumulation assay was performed to elucidate part of the mechanism of action of the compounds. UDP-MurNAc-pentapeptide is the last soluble precursor of peptidoglycan cell wall biosynthesis. In this assay, live cells accumulate this last soluble precursor when treated with compounds that interfere with the membrane bound stages of peptidoglycan biosynthesis (Sass, V. et al. Human beta-defensin 3 inhibits cell wall biosynthesis in Staphylococci. Infect. Immun. 78, 2793-2800 (2010)).

VRS9 = experiment: MIC assay, VISA and VRSA panel; assay type: cell-based, Staphylococcus aureus
Description: (§2) The antibacterial activity of the compounds was tested against a panel of bacteria, including Gram-positive bacteria (S. aureus ATCC29213, S. aureus USA300, S. aureus LIM-2, NR-45881, S. aureus HIP13419, NR-46413, E. faecium E155, E. faecium E7314, E. faecium E980, E. faecalis E1246, E. faecalis E7406 and S. pneumonia 153). The antibacterial activity of the compounds was further tested against S. aureus NY-155, NR-46236, S. aureus HIP12864, NR-46074, S. aureus 880 (BR-VRSA), NR-49120, E. faecalis E1246, E. faecalis E7604, as well as some Gram-negative bacteria (Escherichia coli and Klebsiella pneumoniae). Minimum inhibitory concentrations (MICs) in μg/mL were performed according to the CLSI guidelines. From glycerol stocks, bacterial strains were cultured on blood agar plates and incubated at 37° C. for 18 h. A single colony was transferred to tryptic soy broth (TSB) with 0.002% polysorbate 80 (p80). For the Enterococcus, VISA and VRSA strains, the cultures were grown at 37° C. until the optical density of the suspension reached a level equivalent to the 0.5 McFarland standard. The bacterial suspensions were diluted in TSB with 0.002% p80 to reach a bacterial cell density of 10^6 CFU/mL. In case of the other (vancomycin-sensitive) S. aureus strains, the direct colony suspension method was used. For these strains, after transfer of the colonies to TSB with 0.002% p80, they were immediately diluted to 10^6 CFU/mL, instead of incubated prior to this dilution. In the case of S. pneumonia, direct colony suspension was used by immediately suspending multiple colonies from fresh blood agar plates in TSB+0.002% p80 to an OD600 of 0.5 and subsequent dilution to 10^6 CFU mL^−1 in TSB+0.002% p80+5% lysed horse blood. Antibiotic dilutions for this strains were also made in TSB+0.002% p80+5% lysed horse blood. Both agar and microplates containing S. pneumonia were incubated at 37° C. with 5% CO2 for 24 h with constant shaking (600 rpm). […] The cultures were grown to exponential phase (OD600=0.5) at 37° C. […] In polypropylene 96-well microtiter plates, test compounds were added in biological triplicates and serial diluted 2-fold by transfer and mixing from one well to the next to achieve a final volume of 50 μL per well. An equal volume of bacterial suspension (10^6 CFU mL^−1) was added to the wells. The plates were sealed with breathable membranes and incubated at 37° C. for 24 h with constant shaking (600 rpm). In polypropylene microtiter plates, 100 μL of the test compounds was added to the first row in biological triplicates, and 50 μL of media was added to the other wells. The compounds were subjected to serial dilution by transfer and mixing of 50 μL from one well to the next. Subsequently, 50 μL of bacterial suspension (10^6 CFU/mL) was added to the wells. The plates were sealed with breathable membranes and incubated at 37° C. for 24 h with constant shaking (600 rpm). Positive growth control consisted of wells with bacterial suspension and without antibiotic. Negative growth control consisted of solely media without bacterial suspension or antibiotic. The MICs were determined from the median of a minimum of triplicates.

VRSA3b = experiment: MIC assay, VISA and VRSA panel; assay type: cell-based, Staphylococcus aureus
Description: as §2

NRS63SH = experiment: MIC assay, VISA and VRSA panel; assay type: cell-based, Staphylococcus aureus
Description: as §2

[2] = Cytotoxicity assay for HepG2 (MTT); assay type: cell-based, human; details: human; MTT, HepG2, 24 h, 10% FBS, n = 3; read-out: AC50
Description: as §1

SMILES	accumulation of UDP-MurNAc-pentapeptide (S. aureus ATCC29213)	AC50 at 24 h [2]	MIC (VRS9; Staphylococcus aureus)	MIC (VRSA3b; Staphylococcus aureus)	MIC (NRS63SH; Staphylococcus aureus)	also measured
CCCCCCCNC(N)=Nc1ccc(CN[C@@]2(C)C[C@H](O[C@H]3[C@H](Oc4c5cc6cc4Oc4ccc(cc4Cl)[C@@H](O)[C@@H](NC(=O)[C@@H](CC(C)C)NC)C(=O)N[C@@H](CC(N)=O)C(=O)N[C@H]6C(=O)N[C@H]4C(=O)N[C@H](C(=O)N[C@H](C(=O)O)c6cc(O)cc(O)c6-c6cc4ccc6O)[C@H](O)c4ccc(c(Cl)c4)O5)O[C@H](CO)[C@@H](O)[C@@H]3O)O[C@@H](C)[C@H]2O)cc1 [Compound 5]	accumulation of UDP-MurNAc-pentapeptide					AC50 ([1]; n = 3): > 100 µM; MIC (VRS9; strain VRS9): 16 µg/mL (≈ 9.44 µM); MIC (VRSA3b; strain VRSA3b): 1 µg/mL (≈ 0.59 µM); MIC (NRS63SH; strain NRS63SH): 8 µg/mL (≈ 4.72 µM)
CCCCCCCCNC(N)=Nc1ccc(CN[C@@]2(C)C[C@H](O[C@H]3[C@H](Oc4c5cc6cc4Oc4ccc(cc4Cl)[C@@H](O)[C@@H](NC(=O)[C@@H](CC(C)C)NC)C(=O)N[C@@H](CC(N)=O)C(=O)N[C@H]6C(=O)N[C@H]4C(=O)N[C@H](C(=O)N[C@H](C(=O)O)c6cc(O)cc(O)c6-c6cc4ccc6O)[C@H](O)c4ccc(c(Cl)c4)O5)O[C@H](CO)[C@@H](O)[C@@H]3O)O[C@@H](C)[C@H]2O)cc1 [Compound 6]	accumulation of UDP-MurNAc-pentapeptide					
CCCCCCCCCNC(N)=Nc1ccc(CN[C@@]2(C)C[C@H](O[C@H]3[C@H](Oc4c5cc6cc4Oc4ccc(cc4Cl)[C@@H](O)[C@@H](NC(=O)[C@@H](CC(C)C)NC)C(=O)N[C@@H](CC(N)=O)C(=O)N[C@H]6C(=O)N[C@H]4C(=O)N[C@H](C(=O)N[C@H](C(=O)O)c6cc(O)cc(O)c6-c6cc4ccc6O)[C@H](O)c4ccc(c(Cl)c4)O5)O[C@H](CO)[C@@H](O)[C@@H]3O)O[C@@H](C)[C@H]2O)cc1 [Compound 7]	accumulation of UDP-MurNAc-pentapeptide					
CCCCCCN(CCCCCC)C(N)=Nc1ccc(CN[C@@]2(C)C[C@H](O[C@H]3[C@H](Oc4c5cc6cc4Oc4ccc(cc4Cl)[C@@H](O)[C@@H](NC(=O)[C@@H](CC(C)C)NC)C(=O)N[C@@H](CC(N)=O)C(=O)N[C@H]6C(=O)N[C@H]4C(=O)N[C@H](C(=O)N[C@H](C(=O)O)c6cc(O)cc(O)c6-c6cc4ccc6O)[C@H](O)c4ccc(c(Cl)c4)O5)O[C@H](CO)[C@@H](O)[C@@H]3O)O[C@@H](C)[C@H]2O)cc1 [Compound 12]						AC50 ([1]; n = 3): > 100 µM; MIC (VRS9; strain VRS9): 4 µg/mL (≈ 2.27 µM); MIC (VRSA3b; strain VRSA3b): 0.25 µg/mL (≈ 0.142 µM); MIC (NRS63SH; strain NRS63SH): 2 µg/mL (≈ 1.13 µM)
CN[C@H](CC(C)C)C(=O)N[C@H]1C(=O)N[C@@H](CC(N)=O)C(=O)N[C@H]2C(=O)N[C@H]3C(=O)N[C@H](C(=O)N[C@H](C(=O)O)c4cc(O)cc(O)c4-c4cc3ccc4O)[C@H](O)c3ccc(c(Cl)c3)Oc3cc2cc(c3O[C@@H]2O[C@H](CO)[C@@H](O)[C@H](O)[C@H]2O[C@H]2C[C@](C)(NCc3ccc(N=C(N)NC/C=C(\C)CCC=C(C)C)cc3)[C@H](O)[C@H](C)O2)Oc2ccc(cc2Cl)[C@H]1O [Compound 14]	accumulation of UDP-MurNAc-pentapeptide					
CN[C@H](CC(C)C)C(=O)N[C@H]1C(=O)N[C@@H](CC(N)=O)C(=O)N[C@H]2C(=O)N[C@H]3C(=O)N[C@H](C(=O)N[C@H](C(=O)O)c4cc(O)cc(O)c4-c4cc3ccc4O)[C@H](O[C@H]3C[C@](C)(N)[C@@H](O)[C@H](C)O3)c3ccc(c(Cl)c3)Oc3cc2cc(c3O[C@@H]2O[C@H](CO)[C@@H](O)[C@H](O)[C@H]2O[C@H]2C[C@](C)(NCc3ccc(-c4ccc(Cl)cc4)cc3)[C@@H](O)[C@H](C)O2)Oc2ccc(cc2Cl)[C@H]1O [Oritavancin]		> 100 µM	2 µg/mL (≈ 1.12 µM)	0.25 µg/mL (≈ 0.139 µM)	1 µg/mL (≈ 0.558 µM)	Direction of response (↑↓) [1]: ↓; MEC ([1]; n = 3): 76.5 µM
CCCCCCCCCCNCCN[C@@]1(C)C[C@H](O[C@H]2[C@H](Oc3c4cc5cc3Oc3ccc(cc3Cl)[C@@H](O)[C@@H](NC(=O)[C@@H](CC(C)C)NC)C(=O)N[C@@H](CC(N)=O)C(=O)N[C@H]5C(=O)N[C@H]3C(=O)N[C@H](C(=O)N[C@H](C(=O)O)c5cc(O)c(CNCP(=O)(O)O)c(O)c5-c5cc3ccc5O)[C@H](O)c3ccc(c(Cl)c3)O4)O[C@H](CO)[C@@H](O)[C@@H]2O)O[C@@H](C)[C@H]1O [Telavancin, reference compound]		> 100 µM	16 µg/mL (≈ 9.11 µM)	4 µg/mL (≈ 2.28 µM)	8 µg/mL (≈ 4.56 µM)	
CN[C@H](CC(C)C)C(=O)N[C@H]1C(=O)N[C@@H](CC(N)=O)C(=O)N[C@H]2C(=O)N[C@H]3C(=O)N[C@H](C(=O)N[C@H](C(=O)O)c4cc(O)cc(O)c4-c4cc3ccc4O)[C@H](O)c3ccc(c(Cl)c3)Oc3cc2cc(c3O[C@@H]2O[C@H](CO)[C@@H](O)[C@H](O)[C@H]2O[C@H]2C[C@](C)(N)[C@H](O)[C@H](C)O2)Oc2ccc(cc2Cl)[C@H]1O [Vancomycin, reference compound]		> 100 µM	> 128 µg/mL	> 128 µg/mL	> 128 µg/mL	
